Assay results taken from patent US20220017572A1, “GEMINOID LIPOPEPTIDE COMPOUNDS AND THEIR USES” (Erasmus University Medical Center Rotterdam, priority 2016, published 2022).
Residues, ends and D or L forms follow the SMILES beside them.

Assays:
human furin = human furin (Homo sapiens, UniProt P09958); test: Human furin inhibition, hydrolysis of Ac-RVRR-MCA; type: biochemical; conditions: for activity at 2.5 µM: 2.5 μM inhibitor; for activity at 5 µM: 5 μM inhibitor; for activity at 10 µM: 10 μM inhibitor; for activity at 15 µM: 15 μM inhibitor; for activity at 40 µM: 40 μM inhibitor; for Ki: 10 mM Mes.NaOH, pH 7.0, 2.35 μM Ac-RVRR-MCA, 37° C., read-out: Ki hFurin; for activity at 20 µM: 20 μM inhibitor
Description: (§1) The enzyme was dissolved in 1 mL MES buffer (10 mM), 1 mM CaCl2, pH 7.0 at 36.5° C. Substrate was added in a concentration 10 times the Km, and the inhibitor compounds of type C (C16-KGnK-C16, C16-KAnK-C16, and C16-RAnR-C16) were added in increasing concentrations (1.0, 5.0, 10.0, 20.0, 40.0 μL) from a stock solution of 2 mg in 1 mL DMSO. The residual activity was measured in a Hitachi F2500 spectrofluorimeter, and plots were fitted using the Grafit® software (Erithracus Software, Horley, Surrey, UK). All the assays were calculated by the Morrison equation for competitive inhibition (eq. 1, [Morrison, 1969]). The amount of substrate used for the tight binding titration experiments follow all the requirements, where [S]<<Km for all enzymes, so the Kiapp=Ki.
However, for furin we used a correction of Ki app, where [S]˜Km (eq. 2).
Range of Proteases Inhibited by Geminoids, Determination of Ki with Z-RR-MCA (Dengue 2 Protease) and Ac-RVRR-MCA (Furin) (SEQ ID NO:60).

trypsin = target: T1, trypsin (Bos taurus, UniProt P00760); test: Trypsin inhibition, fluorimetric enzyme assay; type: biochemical; conditions: for remaining activity at 15 µM: 15 μM inhibitor; for remaining activity at 15 µM / remaining activity at 40 µM / remaining activity at 80 µM / remaining activity at 18 µM / remaining activity at 55 µM / remaining activity at 85 µM: 36.5° C., read-out: Residual Activity (%) Trypsin; for remaining activity at 40 µM: 40 μM inhibitor; for remaining activity at 80 µM: 80 μM inhibitor; for remaining activity at 18 µM: 18 μM inhibitor; for remaining activity at 55 µM: 55 μM inhibitor; for remaining activity at 85 µM: 85 μM inhibitor
T1 construct: gene PRSS1
T1 sequence (P00760 24-246): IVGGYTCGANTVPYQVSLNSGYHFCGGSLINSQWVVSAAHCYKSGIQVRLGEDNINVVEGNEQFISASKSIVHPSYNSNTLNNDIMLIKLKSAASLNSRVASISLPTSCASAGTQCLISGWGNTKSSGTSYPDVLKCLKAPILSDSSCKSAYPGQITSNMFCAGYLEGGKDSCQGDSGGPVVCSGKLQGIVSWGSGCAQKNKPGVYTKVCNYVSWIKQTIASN
Description: as §1
(§2) The first group of gemini-like peptide amphiphiles to be screened was that of C16-K(G or A)nK-C16 (compound type C, with R1=n-C15H31, R2=n-C16H33). […] The results of the Ki determination for trypsin, dengue 2 protease, and human furin are given in Table 1A; some general data for the inhibition by this type of compounds are given in Table 1B. For most compounds in Table 1 the Ki could be derived from competitive inhibition experiments. Judging from the Ki values with the relatively simple substrate Z-RR-MCA, the best inhibitors for dengue 2 protease contain alanine (A) rather than glycine (G).

dengue 2 protease [1] = target: T2, dengue 2 protease (Dengue virus type 2, UniProt P14340); test: Dengue 2 protease inhibition in presence of Triton X-100 (detergent test, Nature Protocol); type: biochemical, dengue 2 virus; conditions: 0.05% Triton X-100; for Activity with 0.05% Triton: initial activity in UAF/min
T2 construct: The active site of the dengue protease is in the N-terminal part of NS3
From the text: A further investigation of the interactions of the geminoid inhibitors with biological membranes and with membrane-bound proteases is needed. […] The preparation and tests of peptides symmetrically, asymmetrically and singly alkylated with saturated, short (C6), and unsaturated (C18:1) alkyl tails are in progress.

dengue 2 protease [2] = target: T2, dengue 2 protease; test: Dengue 2 protease inhibition, hydrolysis of Z-RR-MCA; type: biochemical, dengue 2 virus; conditions: for activity at 2.5 µM: 2.5 μM inhibitor; for activity at 5 µM: 5 μM inhibitor; for activity at 10 µM: 10 μM inhibitor; for activity at 15 µM: 15 μM inhibitor; for activity at 40 µM: 40 μM inhibitor; for activity at 20 µM: 20 μM inhibitor
dengue 2 protease [3] = target: T2, dengue 2 protease; test: as above; type: biochemical, dengue 2 virus; parameters: unit not given here; conditions: 10 μM Z-RR-MCA, pH 9.0, 37° C., initial activity in UAF/min
thrombin = thrombin (Homo sapiens, UniProt P00734); test: Thrombin inhibition, fluorimetric enzyme assay; type: biochemical; conditions: 36.5° C., read-out: Residual Activity (%) Thrombin; for remaining activity at 18 µM: 18 μM inhibitor; for remaining activity at 55 µM: 55 μM inhibitor; for remaining activity at 85 µM: 85 μM inhibitor
Description: as §1, with “Kiapp=Ki. […]” for “Kiapp=Ki.”

plasmin = plasmin (Homo sapiens, UniProt P00747); test: Plasmin inhibition, fluorimetric enzyme assay; type: biochemical; conditions: 36.5° C., read-out: Residual Activity (%) Plasmin
Description: as §1, §2

Chain of human furin (P09958 108-794): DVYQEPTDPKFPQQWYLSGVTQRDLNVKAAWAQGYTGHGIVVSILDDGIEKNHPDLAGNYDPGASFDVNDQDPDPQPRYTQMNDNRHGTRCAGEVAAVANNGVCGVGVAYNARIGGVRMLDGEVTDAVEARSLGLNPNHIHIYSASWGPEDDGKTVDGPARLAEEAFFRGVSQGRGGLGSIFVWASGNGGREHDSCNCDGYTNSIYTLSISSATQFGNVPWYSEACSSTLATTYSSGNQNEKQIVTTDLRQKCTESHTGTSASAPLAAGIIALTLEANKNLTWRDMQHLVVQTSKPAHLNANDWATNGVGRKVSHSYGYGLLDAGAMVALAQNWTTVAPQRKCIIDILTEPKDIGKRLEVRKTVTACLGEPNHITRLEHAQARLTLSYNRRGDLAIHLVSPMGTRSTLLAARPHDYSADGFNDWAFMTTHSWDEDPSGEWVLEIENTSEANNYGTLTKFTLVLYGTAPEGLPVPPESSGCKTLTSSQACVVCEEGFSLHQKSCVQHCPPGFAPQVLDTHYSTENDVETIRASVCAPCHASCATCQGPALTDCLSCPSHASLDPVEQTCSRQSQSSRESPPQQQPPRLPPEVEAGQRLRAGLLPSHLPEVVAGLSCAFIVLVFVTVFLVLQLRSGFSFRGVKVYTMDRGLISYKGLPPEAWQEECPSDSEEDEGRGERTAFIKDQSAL
T2 sequence (P14340 1476-1653): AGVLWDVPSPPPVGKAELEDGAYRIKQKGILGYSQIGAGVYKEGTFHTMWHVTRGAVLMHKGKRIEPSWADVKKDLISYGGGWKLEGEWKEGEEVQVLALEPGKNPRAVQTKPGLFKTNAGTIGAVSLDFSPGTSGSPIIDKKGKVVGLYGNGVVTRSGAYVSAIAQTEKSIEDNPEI
Chain of plasmin (P00747 581-810 limits assumed, species assumed): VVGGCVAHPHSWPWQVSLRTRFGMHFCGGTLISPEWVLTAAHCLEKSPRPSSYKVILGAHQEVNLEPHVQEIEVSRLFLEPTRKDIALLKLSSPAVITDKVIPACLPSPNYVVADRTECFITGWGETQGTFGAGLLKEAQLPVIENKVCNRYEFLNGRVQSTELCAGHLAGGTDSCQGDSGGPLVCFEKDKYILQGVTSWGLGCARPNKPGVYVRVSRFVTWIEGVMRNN
Chain of plasmin (P00747 97-580 partner limits assumed, species assumed): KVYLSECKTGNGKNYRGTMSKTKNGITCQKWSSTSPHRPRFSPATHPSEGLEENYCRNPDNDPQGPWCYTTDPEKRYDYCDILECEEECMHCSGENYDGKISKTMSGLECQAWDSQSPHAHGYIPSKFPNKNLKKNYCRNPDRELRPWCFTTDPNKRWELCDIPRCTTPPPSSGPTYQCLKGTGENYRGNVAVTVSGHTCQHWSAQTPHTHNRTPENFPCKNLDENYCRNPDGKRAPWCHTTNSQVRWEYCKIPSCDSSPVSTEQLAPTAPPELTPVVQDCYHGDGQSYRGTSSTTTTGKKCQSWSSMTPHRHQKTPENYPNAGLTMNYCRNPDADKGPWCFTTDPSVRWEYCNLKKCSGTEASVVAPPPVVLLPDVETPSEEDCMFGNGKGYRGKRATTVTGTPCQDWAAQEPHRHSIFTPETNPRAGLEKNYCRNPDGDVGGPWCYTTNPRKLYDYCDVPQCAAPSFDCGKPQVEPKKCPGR

SMILES: CCCCCCCCCCCCCCCCNC(=O)[C@H](CCCCN)NC(=O)[C@H](C)NC(=O)[C@H](C)NC(=O)[C@H](C)NC(=O)[C@H](C)NC(=O)[C@H](CCCCN)NC(=O)CCCCCCCCCCCCCCC [C16-KAAAAK-C16] (HELM PEPTIDE1{[CCCCCCCCCCCCCCCC(=O)[*:2]].K.A.A.A.A.K.[CCCCCCCCCCCCCCCCN[*:1]]}$$$$V2.0)
- activity at 2.5 µM (human furin; 36.5° C.): 70%
- activity at 5 µM (human furin; 36.5° C.): 59%
- activity at 10 µM (human furin; 36.5° C.): 52%
- activity at 15 µM (human furin; 36.5° C.): 45%
- activity at 40 µM (human furin; 36.5° C.): 0%
- Ki (human furin): 1.75 µM
- remaining activity at 15 µM (trypsin): 73%
- remaining activity at 40 µM (trypsin): 35%
- remaining activity at 80 µM (trypsin): 20%
- % recovery in presence of Triton (dengue 2 protease [1]; 20 μM of inhibitor): 67%
- Activity with 0.05% Triton (dengue 2 protease [1]; 20 μM of inhibitor): 133
- Ki (dengue 2 protease [2]): 2.4 µM
- activity at 2.5 µM (dengue 2 protease [2]; 36.5° C.): 94%
- activity at 5 µM (dengue 2 protease [2]; 36.5° C.): 90%
- activity at 10 µM (dengue 2 protease [2]; 36.5° C.): 85%
- activity at 15 µM (dengue 2 protease [2]; 36.5° C.): 79%
- activity at 40 µM (dengue 2 protease [2]; 36.5° C.): 45%
- Activity with inhibitors (dengue 2 protease [3]; 20 μM of inhibitor): 47

SMILES: CCCCCCCCCCCCCCCCNC(=O)[C@H](CCCCN)NC(=O)[C@H](C)NC(=O)[C@H](C)NC(=O)[C@H](C)NC(=O)[C@H](CCCCN)NC(=O)CCCCCCCCCCCCCCC [C16-KAAAK-C16] (HELM PEPTIDE1{[CCCCCCCCCCCCCCCC(=O)[*:2]].K.A.A.A.K.[CCCCCCCCCCCCCCCCN[*:1]]}$$$$V2.0)
- activity at 2.5 µM (human furin; 36.5° C.): 73%
- activity at 5 µM (human furin; 36.5° C.): 56%
- activity at 10 µM (human furin; 36.5° C.): 24%
- activity at 15 µM (human furin; 36.5° C.): 10%
- activity at 40 µM (human furin; 36.5° C.): 0%
- Ki (human furin): 1.72 µM
- Ki (trypsin): 40.3 µM
- remaining activity at 15 µM (trypsin): 79%
- remaining activity at 40 µM (trypsin): 54%
- remaining activity at 80 µM (trypsin): 40%
- % recovery in presence of Triton (dengue 2 protease [1]; 30 μM of inhibitor): 50%
- Activity with 0.05% Triton (dengue 2 protease [1]; 30 μM of inhibitor): 91
- Ki (dengue 2 protease [2]): 1.41 µM
- activity at 2.5 µM (dengue 2 protease [2]; 36.5° C.): 91%
- activity at 5 µM (dengue 2 protease [2]; 36.5° C.): 85%
- activity at 10 µM (dengue 2 protease [2]; 36.5° C.): 75%
- activity at 15 µM (dengue 2 protease [2]; 36.5° C.): 64%
- activity at 40 µM (dengue 2 protease [2]; 36.5° C.): 25%
- Activity with inhibitors (dengue 2 protease [3]; 30 μM of inhibitor): 0

SMILES: CCCCCCCCCCCCCCCCNC(=O)[C@H](CCCCN)NC(=O)CNC(=O)CNC(=O)CNC(=O)[C@H](CCCCN)NC(=O)CCCCCCCCCCCCCCC [C16-KGGGK-C16, C15H31CO-KGGGK-NH—C16H33] (HELM PEPTIDE1{[CCCCCCCCCCCCCCCC(=O)[*:2]].K.G.G.G.K.[CCCCCCCCCCCCCCCCN[*:1]]}$$$$V2.0)
- activity at 5 µM (human furin; 36.5° C.): 68%
- activity at 10 µM (human furin; 36.5° C.): 35%
- activity at 15 µM (human furin; 36.5° C.): 29%
- activity at 20 µM (human furin; 36.5° C.): 20%
- activity at 40 µM (human furin; 36.5° C.): 0%
- Ki (trypsin): 11.1 µM
- remaining activity at 18 µM (trypsin): 84%
- remaining activity at 55 µM (trypsin): 56%
- remaining activity at 85 µM (trypsin): 38%
- remaining activity at 18 µM (thrombin): 81%
- remaining activity at 55 µM (thrombin): 64%
- remaining activity at 85 µM (thrombin): 45%
- % recovery in presence of Triton (dengue 2 protease [1]; 30 μM of inhibitor): 75%
- Activity with 0.05% Triton (dengue 2 protease [1]; 30 μM of inhibitor): 154
- Ki (dengue 2 protease [2]): 2.5 µM
- activity at 5 µM (dengue 2 protease [2]; 36.5° C.): 86%
- activity at 10 µM (dengue 2 protease [2]; 36.5° C.): 80%
- activity at 15 µM (dengue 2 protease [2]; 36.5° C.): 74%
- activity at 20 µM (dengue 2 protease [2]; 36.5° C.): 65%
- activity at 40 µM (dengue 2 protease [2]; 36.5° C.): 51%
- Activity with inhibitors (dengue 2 protease [3]; 30 μM of inhibitor): 40

SMILES: CCCCCCCCCCCCCCCCNC(=O)[C@H](CCCCN)NC(=O)[C@H](CCCCN)NC(=O)CCCCCCCCCCCCCCC [C16-KK-C16, C15H31CO-KK-NH—C16H33]
- activity at 20 µM (human furin; 36.5° C.): 10%
- activity at 50 µM (human furin; 50 μM inhibitor, 36.5° C.): 5%
- activity at 100 µM (human furin; 100 μM inhibitor, 36.5° C.): 0%
- Ki (trypsin): 84.7 µM
- remaining activity at 15 µM (trypsin): 82%
- remaining activity at 55 µM (trypsin): 58%
- remaining activity at 85 µM (trypsin): 43%
- remaining activity at 15 µM (thrombin; 15 μM inhibitor): 62%
- remaining activity at 55 µM (thrombin): 48%
- remaining activity at 85 µM (thrombin): 37%
- remaining activity at 15 µM (plasmin; 15 μM inhibitor): 39%
- remaining activity at 55 µM (plasmin; 55 μM inhibitor): 11%
- remaining activity at 85 µM (plasmin; 85 μM inhibitor): 4%
- % recovery in presence of Triton (dengue 2 protease [1]; 30 μM of inhibitor): 52%
- Activity with 0.05% Triton (dengue 2 protease [1]; 30 μM of inhibitor): 113
- Ki (dengue 2 protease [2]): 5.37 µM
- activity at 20 µM (dengue 2 protease [2]; 36.5° C.): 58%
- activity at 50 µM (dengue 2 protease [2]; 50 μM inhibitor, 36.5° C.): 37%
- activity at 100 µM (dengue 2 protease [2]; 100 μM inhibitor, 36.5° C.): 7%
- Activity with inhibitors (dengue 2 protease [3]; 30 μM of inhibitor): 48

SMILES: CCCCCCCCCCCCCCCCNC(=O)[C@H](CCCCN)NC(=O)CNC(=O)CNC(=O)CNC(=O)CNC(=O)[C@H](CCCCN)NC(=O)CCCCCCCCCCCCCCC [C16KG4KC16] (HELM PEPTIDE1{[CCCCCCCCCCCCCCCC(=O)[*:2]].K.G.G.G.G.K.[CCCCCCCCCCCCCCCCN[*:1]]}$$$$V2.0)
- activity at 5 µM (human furin; 36.5° C.): 82%
- activity at 10 µM (human furin; 36.5° C.): 64%
- activity at 15 µM (human furin; 36.5° C.): 54%
- activity at 20 µM (human furin; 36.5° C.): 23%
- activity at 40 µM (human furin; 36.5° C.): 0%
- remaining activity at 18 µM (trypsin): 81%
- remaining activity at 55 µM (trypsin): 67%
- remaining activity at 85 µM (trypsin): 53%
- remaining activity at 18 µM (thrombin): 88%
- remaining activity at 55 µM (thrombin): 59%
- remaining activity at 85 µM (thrombin): 41%
- % recovery in presence of Triton (dengue 2 protease [1]; 30 μM of inhibitor): 63%
- Activity with 0.05% Triton (dengue 2 protease [1]; 30 μM of inhibitor): 125
- Ki (dengue 2 protease [2]): 1.37 µM
- activity at 5 µM (dengue 2 protease [2]; 36.5° C.): 86%
- activity at 10 µM (dengue 2 protease [2]; 36.5° C.): 78%
- activity at 15 µM (dengue 2 protease [2]; 36.5° C.): 70%
- activity at 20 µM (dengue 2 protease [2]; 36.5° C.): 60%
- activity at 40 µM (dengue 2 protease [2]; 36.5° C.): 45%
- Activity with inhibitors (dengue 2 protease [3]; 30 μM of inhibitor): 0
